Test systems include KM12; COLO 205; 786-0; HCT-116; SNB-75; Malme-3M; SK-MEL-5; U-251; HOP-92; A498; LOX IMVI; RPMI-8226; SF-295; OVCAR-3; SK-OV-3; TK-10; HCC 2998; HCT-15; K562; MCF7.
Assay in all cases: NCI-60 cell line screen, 48 h

“And” between values parts separate entries of the source, which are not always exact repeats. Equal entries are not always repeated.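 Cells were grown in 96-well plates and exposed to each compound for 48 hours at five concentrations; endpoints were interpolated linearly between bracketing concentrations, or set to the highest concentration if not reached. At the GI50, growth is halved.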 The source made the active and inactive calls. Rule as the data show it: active = GI50 up to about 1.1 µM and inactive = higher.

Consider `CCCCN/C(=N/C#N)NCc1ccccc1`, for which the GI50 was > 100 µM (inactive) with KM12; > 100 µM (inactive) in the assay on COLO 205; > 100 µM (inactive) in the assay on 786-0; > 100 µM (inactive) in the assay on HCT-116; 42.8 µM (inactive) in the assay on SNB-75; > 100 µM (inactive) in the assay on Malme-3M. Moreover, the GI50 in the assay with SK-MEL-5, in the assay on U-251, in the assay on HOP-92, in the assay with A498, in the assay with LOX IMVI and with RPMI-8226 was > 100 µM (inactive) in each case. Also, the GI50 in the assay with SF-295 is > 100 µM (inactive); in the assay with OVCAR-3 it was > 100 µM (inactive); in the assay on SK-OV-3 it was > 100 µM (inactive); in the assay on TK-10, > 100 µM (inactive); with HCC 2998, 88.5 µM (inactive); in the assay on HCT-15, over 100 µM.

With `O=C(/C=C/c1ccccc1)CSc1nc[nH]n1`, the GI50 in the assay with KM12 was > 100 µM (inactive); in the assay on COLO 205, > 100 µM (inactive); in the assay with 786-0, > 100 µM (inactive); in the assay on HCT-116 it was 33 µM (inactive); in the assay on K562, 46.8 µM (inactive); in the assay with SNB-75, 14.3 µM (inactive). The GI50 was > 100 µM (inactive) in the assay on Malme-3M; 38.5 µM (inactive) in the assay with SK-MEL-5; 37.1 µM (inactive) with U-251; 35.1 µM (inactive) in the assay on RPMI-8226; 81.1 µM (inactive) in the assay on SF-295; > 100 µM (inactive) in the assay with OVCAR-3. For the same compound, the GI50 is > 100 µM (inactive) with SK-OV-3; > 100 µM (inactive) with TK-10; > 100 µM (inactive) in the assay with HCC 2998; 36.4 µM (inactive) in the assay on MCF7; 41.3 µM in the assay with HCT-15.

`CCN1/C(=C/C(C)=C/c2sc3ccccc3[n+]2CC)Sc2ccccc21`: the GI50 in the assay on KM12 was 0.0641 µM (active); with COLO 205, 0.142 µM (active); with 786-0, 0.418 µM (active); in the assay on HCT-116, 0.0485 µM (active); in the assay on K562, 0.034 µM (active); with SNB-75, 0.239 µM (active). The GI50 with Malme-3M was 0.37 µM (active); in the assay on SK-MEL-5 it was 0.0925 µM (active); in the assay with U-251 it was 0.0378 µM (active); in the assay with HOP-92 it was < 0.01 µM (active); in the assay with A498, 0.381 µM (active); with LOX IMVI, 0.135 µM (active). For the same compound, the GI50 in the assay on RPMI-8226 was 0.0223 µM (active); in the assay on SF-295, 0.112 µM (active); with OVCAR-3, 0.172 µM (active); in the assay with SK-OV-3, 0.0769 µM (active); with TK-10, 0.324 µM (active); with HCC 2998, 0.255 µM (active). Besides, the GI50 in the assay with HCT-15 was 0.395 µM.

On to `C(/COc1cccnc1)=N\NC1=NCCN1`, for which the GI50 in the assay on KM12, with COLO 205, in the assay with 786-0, with HCT-116, with K562 and in the assay with SNB-75 was > 100 µM (inactive) in each case. In addition, the GI50 with Malme-3M, in the assay on SK-MEL-5, with U-251, in the assay on HOP-92, with A498 and in the assay with LOX IMVI was > 100 µM (inactive) throughout. Besides, the GI50 with RPMI-8226, in the assay with SF-295, in the assay with OVCAR-3, with SK-OV-3, with TK-10 and in the assay with HCC 2998 was > 100 µM (inactive) throughout. This compound returned a GI50 in the assay with HCT-15 of over 100 µM.

`O=C1[C@H]2ON(c3ccccc3)C(c3ccco3)[C@H]2C(=O)N1c1ccc(Cc2ccc(N3C(=O)[C@@H]4ON(c5ccccc5)C(c5ccco5)[C@@H]4C3=O)cc2)cc1` (stereo partly drawn): the GI50 in the assay on KM12 is > 100 µM (inactive); in the assay with COLO 205, 78.2 µM (inactive); in the assay on 786-0 it was > 100 µM (inactive); in the assay with K562, > 100 µM (inactive); with SNB-75, > 100 µM (inactive); in the assay with Malme-3M it was > 100 µM (inactive). Besides, the GI50 in the assay with SK-MEL-5, with U-251, in the assay with HOP-92, with A498, in the assay on LOX IMVI and in the assay on RPMI-8226 was > 100 µM (inactive) in each case. Also, the GI50 was > 100 µM (inactive) in the assay on SF-295; > 100 µM (inactive) in the assay on OVCAR-3; > 100 µM (inactive) in the assay on SK-OV-3; > 100 µM (inactive) in the assay on HCC 2998; over 100 µM in the assay on HCT-15.

`CS(=O)(=O)OCCN1CCN(C(=O)c2cccc3c(Nc4ccc(S(N)(=O)=O)cc4)c4ccccc4nc23)CC1`: the GI50 in the assay with KM12 is > 100 µM (inactive); in the assay on COLO 205 it was > 50.8 µM (inactive); in the assay with 786-0, > 100 µM (inactive); with HCT-116, > 43.9 µM (inactive); with K562, > 51.5 µM (inactive); in the assay on SNB-75, > 100 µM (inactive). For the same compound, the GI50 in the assay with Malme-3M is > 100 µM (inactive); with SK-MEL-5, > 100 µM (inactive); with U-251, > 100 µM (inactive); in the assay on HOP-92 it was > 100 µM (inactive); in the assay on A498 it was > 100 µM (inactive); with LOX IMVI, > 40.6 µM (inactive). The GI50 was > 46.5 µM (inactive) in the assay on RPMI-8226; > 100 µM (inactive) in the assay with SF-295; > 100 µM (inactive) with OVCAR-3; > 100 µM (inactive) with SK-OV-3; > 100 µM (inactive) with TK-10; > 100 µM (inactive) in the assay with HCC 2998. The GI50 with HCT-15 was over 42.9 µM.

As to `COc1cc(-c2oc3c(OC)c(OC)cc(O)c3c(=O)c2OC)ccc1O` [TERNATIN], the GI50 is > 100 µM (inactive) in the assay on COLO 205; 6.32 µM (inactive) and 12 µM (inactive) with 786-0; 5.04 µM (inactive) and 8.69 µM (inactive) in the assay with HCT-116; 27.5 µM (inactive) with K562; 13.1 µM (inactive) and 9.59 µM (inactive) with Malme-3M; 11.7 µM (inactive) in the assay on OVCAR-3. Also, the GI50 in the assay with SK-OV-3 is 1.17 µM (inactive) and 2.19 µM (inactive); with TK-10, 4.84 µM (inactive) and 8.69 µM (inactive); in the assay on MCF7 it was 21.1 µM (inactive); with HCT-15, 4.54 µM and 6.24 µM.

As for `Cc1cc(NS(=O)(=O)c2ccc(NC(=O)c3cccc4c(=O)c5ccccc5[nH]c34)cc2)no1`, the GI50 in the assay with KM12 is 78.3 µM (inactive); in the assay on COLO 205 it was 50.5 µM (inactive); in the assay on 786-0, 10.2 µM (inactive); in the assay with HCT-116, 36.9 µM (inactive); in the assay on K562, 36.1 µM (inactive); with SNB-75, 23.1 µM (inactive). Besides, the GI50 is 63.1 µM (inactive) in the assay on Malme-3M; 40.8 µM (inactive) with SK-MEL-5; 29.9 µM (inactive) in the assay on U-251; 29.5 µM (inactive) with HOP-92; 28.8 µM (inactive) in the assay on A498; 31.4 µM (inactive) with LOX IMVI. Further, the GI50 was 33.8 µM (inactive) with RPMI-8226; > 10 µM (inactive) with SF-295; 29.4 µM (inactive) in the assay with OVCAR-3; 14.9 µM (inactive) with SK-OV-3; 40.2 µM (inactive) with TK-10; 36.5 µM (inactive) in the assay on HCC 2998. The GI50 with HCT-15 was 66.7 µM.

Regarding `Nc1nc(S)nc(C(=O)Nc2ccc(Cl)c(Cl)c2)c1-c1ccc(Cl)cc1`, the GI50 in the assay with KM12 was > 100 µM (inactive); in the assay on COLO 205, > 100 µM (inactive); in the assay on 786-0, > 100 µM (inactive); in the assay with HCT-116, 45.4 µM (inactive); in the assay with K562, 90.8 µM (inactive); in the assay on SNB-75, > 100 µM (inactive). Besides, the GI50 was > 100 µM (inactive) in the assay with Malme-3M; > 100 µM (inactive) in the assay with SK-MEL-5; > 100 µM (inactive) with U-251; 93.1 µM (inactive) with HOP-92; > 100 µM (inactive) in the assay with A498; > 100 µM (inactive) in the assay with LOX IMVI. The GI50 with RPMI-8226 is 62.7 µM (inactive); in the assay on SF-295, > 100 µM (inactive); in the assay on OVCAR-3, > 100 µM (inactive); with SK-OV-3, > 100 µM (inactive); in the assay on TK-10 it was > 100 µM (inactive); with HCC 2998 it was > 100 µM (inactive). The same compound had a GI50 in the assay on HCT-15 of over 100 µM.

Take `COc1cccc(-c2nc(-c3cnccn3)n(C3OC(CO)C(O)C3O)n2)c1` (stereo not drawn): the GI50 with KM12, in the assay with COLO 205, in the assay on 786-0, with HCT-116, with K562 and with SNB-75 was > 100 µM (inactive) in each case. In addition, the GI50 in the assay with SK-MEL-5, in the assay on U-251, with HOP-92, in the assay on LOX IMVI, with SF-295 and in the assay with OVCAR-3 was > 100 µM (inactive) each time. The GI50 in the assay on SK-OV-3 is > 100 µM (inactive); in the assay on TK-10, > 100 µM (inactive); with HCC 2998, > 100 µM (inactive); with MCF7, > 100 µM (inactive); with HCT-15 it was over 100 µM.

Take `Cn1cc2ccccc2c1-c1nc(F)nc(Oc2ccc3c(c2)CC[C@@H]2C3CC[C@@]3(C)C2CC[C@@H]3O)n1` (stereo partly drawn): the GI50 in the assay with KM12 was 11.4 µM (inactive); in the assay on COLO 205, 21.8 µM (inactive); with 786-0, 8.91 µM (inactive); in the assay on HCT-116, 11.7 µM (inactive); with K562, 4.73 µM (inactive); in the assay on SNB-75 it was 16.7 µM (inactive). Besides, the GI50 is 15.5 µM (inactive) in the assay with Malme-3M; 12.8 µM (inactive) in the assay with SK-MEL-5; 6.73 µM (inactive) in the assay on U-251; 7.78 µM (inactive) in the assay on HOP-92; 20.5 µM (inactive) in the assay on A498; 5.79 µM (inactive) in the assay with LOX IMVI. Besides, the GI50 in the assay on RPMI-8226 is 5.94 µM (inactive); in the assay on SF-295 it was 22.6 µM (inactive); in the assay with OVCAR-3, 9.33 µM (inactive); in the assay with SK-OV-3 it was 19.3 µM (inactive); in the assay on TK-10 it was 13.7 µM (inactive); in the assay on HCC 2998, 18.3 µM (inactive). Moreover, the GI50 in the assay with HCT-15 was 6.18 µM.
